{
  "source": "ChEMBL document CHEMBL1201862",
  "about": "“PubChem BioAssay data set” (2004)",
  "key": {"[1]": {"molecular_target": "Intestinal-type alkaline phosphatase (Homo sapiens, UniProt P09923)", "sequence (P09923 whole entry)": "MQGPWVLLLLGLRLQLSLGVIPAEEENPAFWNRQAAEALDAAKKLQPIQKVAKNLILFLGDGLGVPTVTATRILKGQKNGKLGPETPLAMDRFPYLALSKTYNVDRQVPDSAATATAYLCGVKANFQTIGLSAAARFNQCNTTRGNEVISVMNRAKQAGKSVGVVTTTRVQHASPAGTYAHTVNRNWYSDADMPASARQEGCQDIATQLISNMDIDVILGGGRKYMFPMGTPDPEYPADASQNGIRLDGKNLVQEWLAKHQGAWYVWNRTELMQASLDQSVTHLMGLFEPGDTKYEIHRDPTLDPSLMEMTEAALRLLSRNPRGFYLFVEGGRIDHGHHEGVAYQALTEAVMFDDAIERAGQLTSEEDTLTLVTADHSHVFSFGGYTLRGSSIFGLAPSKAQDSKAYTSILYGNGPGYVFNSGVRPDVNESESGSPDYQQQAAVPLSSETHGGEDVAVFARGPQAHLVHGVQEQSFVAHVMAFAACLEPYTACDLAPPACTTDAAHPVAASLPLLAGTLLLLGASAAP", "assay": "Dose Response confirmation of uHTS hits from a small molecule inhibitors of human intestinal alkaline phosphatase via a luminescent assay. [Related pubchem assays (depositor defined):AID2544, AID2574]", "format": "functional"}, "[2]": {"molecular_target": "T1, Short transient receptor potential channel 4 (Mus musculus, UniProt Q9QUQ5)", "T1 sequence (Q9QUQ5 whole entry)": "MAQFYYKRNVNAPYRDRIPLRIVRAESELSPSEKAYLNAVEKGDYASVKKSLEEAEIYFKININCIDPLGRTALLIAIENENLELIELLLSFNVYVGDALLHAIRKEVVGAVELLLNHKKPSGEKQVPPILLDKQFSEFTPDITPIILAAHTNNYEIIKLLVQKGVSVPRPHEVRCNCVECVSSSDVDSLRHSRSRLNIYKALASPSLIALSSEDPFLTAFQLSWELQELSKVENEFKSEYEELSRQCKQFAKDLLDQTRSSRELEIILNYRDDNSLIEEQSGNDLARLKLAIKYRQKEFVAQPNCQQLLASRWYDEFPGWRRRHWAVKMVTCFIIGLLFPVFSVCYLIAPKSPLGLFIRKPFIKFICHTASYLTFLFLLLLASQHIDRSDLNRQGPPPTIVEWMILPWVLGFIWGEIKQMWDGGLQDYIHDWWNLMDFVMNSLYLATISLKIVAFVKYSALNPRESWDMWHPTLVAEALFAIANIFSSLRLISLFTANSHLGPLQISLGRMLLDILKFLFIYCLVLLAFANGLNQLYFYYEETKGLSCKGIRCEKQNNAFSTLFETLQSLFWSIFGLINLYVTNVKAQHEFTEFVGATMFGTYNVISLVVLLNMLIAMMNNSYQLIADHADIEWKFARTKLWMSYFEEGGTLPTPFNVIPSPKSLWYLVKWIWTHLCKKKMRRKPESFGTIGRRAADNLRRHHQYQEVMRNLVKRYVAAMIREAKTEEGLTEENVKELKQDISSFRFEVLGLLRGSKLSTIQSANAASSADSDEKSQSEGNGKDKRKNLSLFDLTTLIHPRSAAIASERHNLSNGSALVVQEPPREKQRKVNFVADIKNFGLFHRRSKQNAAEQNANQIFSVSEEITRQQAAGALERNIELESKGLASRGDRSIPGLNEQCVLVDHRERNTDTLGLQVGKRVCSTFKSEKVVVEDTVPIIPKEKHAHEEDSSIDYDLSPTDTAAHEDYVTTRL", "assay": "mouse TRPC4 channel activators, dose response, cell-based, HEK293 TRPC4/mu-opioid, Fluo-4 calcium (AID 434937)", "format": "functional"}, "[3]": {"molecular_target": "Delta-type opioid receptor (Homo sapiens, UniProt P41143)", "sequence (P41143 whole entry)": "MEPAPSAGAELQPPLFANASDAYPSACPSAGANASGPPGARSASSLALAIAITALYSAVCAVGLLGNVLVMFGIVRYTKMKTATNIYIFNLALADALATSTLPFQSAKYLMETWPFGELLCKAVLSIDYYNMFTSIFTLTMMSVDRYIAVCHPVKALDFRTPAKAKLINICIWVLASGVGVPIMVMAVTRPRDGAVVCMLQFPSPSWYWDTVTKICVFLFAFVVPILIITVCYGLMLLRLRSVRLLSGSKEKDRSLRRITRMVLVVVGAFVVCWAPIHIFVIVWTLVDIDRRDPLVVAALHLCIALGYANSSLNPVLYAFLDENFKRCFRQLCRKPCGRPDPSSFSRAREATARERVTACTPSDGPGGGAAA", "assay": "Counterscreen for agonists of heterodimerization of the mu 1 (OPRM1) and delta 1 (OPRD1) opioid receptors: Luminescence-based cell-based high throughput dose response assay to identify agonists of OPRD1 homodimerization. [Related pubchem assays (depositor defined):AID504326, AID504355, AID504692, AID504904, AID504905]", "format": "functional"}, "Mu-type opioid receptor": {"molecular_target": "Mu-type opioid receptor (Homo sapiens, UniProt P35372)", "sequence (P35372 whole entry)": "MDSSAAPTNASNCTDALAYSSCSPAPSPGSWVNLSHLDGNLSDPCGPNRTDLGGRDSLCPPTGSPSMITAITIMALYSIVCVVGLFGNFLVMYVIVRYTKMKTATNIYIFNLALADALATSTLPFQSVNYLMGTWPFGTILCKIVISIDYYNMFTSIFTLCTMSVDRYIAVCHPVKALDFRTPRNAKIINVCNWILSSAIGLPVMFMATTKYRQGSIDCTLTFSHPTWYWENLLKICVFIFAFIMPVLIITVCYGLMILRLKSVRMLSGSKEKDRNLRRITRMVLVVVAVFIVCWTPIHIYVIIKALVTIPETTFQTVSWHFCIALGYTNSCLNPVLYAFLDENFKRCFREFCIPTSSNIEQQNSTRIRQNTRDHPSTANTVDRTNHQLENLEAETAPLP", "assay": "Counterscreen for agonists of heterodimerization of the mu 1 (OPRM1) and delta 1 (OPRD1) opioid receptors: Luminescence-based cell-based high throughput dose response assay to identify agonists of OPRM1 homodimerization.", "format": "functional"}, "[4]": {"molecular_target": "5-hydroxytryptamine receptor 5A (Homo sapiens, UniProt P47898)", "sequence (P47898 whole entry)": "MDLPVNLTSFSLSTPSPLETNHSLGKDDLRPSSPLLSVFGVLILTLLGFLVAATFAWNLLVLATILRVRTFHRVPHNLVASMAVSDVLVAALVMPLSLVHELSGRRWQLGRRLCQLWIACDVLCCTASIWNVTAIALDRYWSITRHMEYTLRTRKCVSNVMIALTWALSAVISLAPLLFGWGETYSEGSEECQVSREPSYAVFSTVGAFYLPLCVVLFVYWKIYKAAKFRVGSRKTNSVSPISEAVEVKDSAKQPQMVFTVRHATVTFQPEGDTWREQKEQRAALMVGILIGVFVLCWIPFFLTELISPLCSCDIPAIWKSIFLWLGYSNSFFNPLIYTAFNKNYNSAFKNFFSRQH", "assay": "Counterscreen for agonists of OPRM1-OPRD1 heterodimerization: luminescence-based cell-based high throughput dose response assay to identify agonists of 5-hydroxytryptamine (serotonin) 5A receptor (HTR5A). [Related pubchem assays (depositor defined):AID504326, AID504355, AID504692, AID504904, AID504905]", "format": "functional"}, "[5]": {"molecular_target": "Mitogen-activated protein kinase 10 (Homo sapiens, UniProt P53779)", "sequence (P53779 whole entry)": "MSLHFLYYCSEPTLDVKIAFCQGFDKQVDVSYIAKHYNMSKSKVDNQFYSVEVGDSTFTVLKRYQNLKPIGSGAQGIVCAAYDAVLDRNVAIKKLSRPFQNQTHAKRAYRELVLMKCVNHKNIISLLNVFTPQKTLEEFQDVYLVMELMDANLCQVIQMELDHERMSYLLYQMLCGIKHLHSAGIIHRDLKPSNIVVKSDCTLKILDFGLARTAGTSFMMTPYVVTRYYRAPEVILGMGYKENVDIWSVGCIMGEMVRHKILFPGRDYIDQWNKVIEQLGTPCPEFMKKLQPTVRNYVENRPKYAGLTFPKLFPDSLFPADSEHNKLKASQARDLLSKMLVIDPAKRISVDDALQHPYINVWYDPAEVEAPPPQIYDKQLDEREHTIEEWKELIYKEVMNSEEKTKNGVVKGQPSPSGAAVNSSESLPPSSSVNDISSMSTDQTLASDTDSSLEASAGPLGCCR", "assay": "Dose response biochemical screening assay for inhibitors of c-Jun N-Terminal Kinase 3 (JNK3). [Related pubchem assays: 746 ]"}, "[6]": {"molecular_target": "T2, Aryl hydrocarbon receptor (Homo sapiens, UniProt P35869)", "T2 sequence (P35869 whole entry)": "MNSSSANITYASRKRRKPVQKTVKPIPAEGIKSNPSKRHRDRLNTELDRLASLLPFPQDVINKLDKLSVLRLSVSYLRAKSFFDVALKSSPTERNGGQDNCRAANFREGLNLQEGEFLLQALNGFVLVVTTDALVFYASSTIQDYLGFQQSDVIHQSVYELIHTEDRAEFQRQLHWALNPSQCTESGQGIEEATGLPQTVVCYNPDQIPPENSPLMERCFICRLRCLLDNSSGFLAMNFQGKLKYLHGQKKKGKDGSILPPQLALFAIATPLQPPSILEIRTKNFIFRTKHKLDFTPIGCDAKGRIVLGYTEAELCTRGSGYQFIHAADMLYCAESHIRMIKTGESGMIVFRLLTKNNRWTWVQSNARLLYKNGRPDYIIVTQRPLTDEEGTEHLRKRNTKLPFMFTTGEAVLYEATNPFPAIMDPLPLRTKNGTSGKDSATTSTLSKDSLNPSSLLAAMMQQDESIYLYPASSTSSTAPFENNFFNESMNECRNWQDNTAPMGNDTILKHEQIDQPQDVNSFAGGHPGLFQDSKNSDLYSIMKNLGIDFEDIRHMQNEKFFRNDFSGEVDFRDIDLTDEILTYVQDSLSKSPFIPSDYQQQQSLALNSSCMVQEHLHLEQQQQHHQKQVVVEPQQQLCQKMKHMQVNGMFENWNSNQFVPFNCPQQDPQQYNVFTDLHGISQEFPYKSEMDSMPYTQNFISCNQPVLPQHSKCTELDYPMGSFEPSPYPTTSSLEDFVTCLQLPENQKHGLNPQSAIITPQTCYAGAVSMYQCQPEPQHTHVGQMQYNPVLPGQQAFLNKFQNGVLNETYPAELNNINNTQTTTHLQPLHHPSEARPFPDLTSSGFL", "assay": "Luminescence-based cell-based high throughput dose response assay for activators of the Aryl Hydrocarbon Receptor (AHR). [Related pubchem assays: 2796 (Primary screen (AHR activators in singlicate)), 2845 (Confirmation screen (AHR activators in triplicate)), 434939 (Counterscreen (PXR activators in triplicate)), 2804 (Summary (AHR activators))]", "format": "ADME"}, "CAAX prenyl protease 2": {"molecular_target": "T3, CAAX prenyl protease 2 (Saccharomyces cerevisiae S288c, UniProt Q03530)", "T3 sequence (Q03530 whole entry)": "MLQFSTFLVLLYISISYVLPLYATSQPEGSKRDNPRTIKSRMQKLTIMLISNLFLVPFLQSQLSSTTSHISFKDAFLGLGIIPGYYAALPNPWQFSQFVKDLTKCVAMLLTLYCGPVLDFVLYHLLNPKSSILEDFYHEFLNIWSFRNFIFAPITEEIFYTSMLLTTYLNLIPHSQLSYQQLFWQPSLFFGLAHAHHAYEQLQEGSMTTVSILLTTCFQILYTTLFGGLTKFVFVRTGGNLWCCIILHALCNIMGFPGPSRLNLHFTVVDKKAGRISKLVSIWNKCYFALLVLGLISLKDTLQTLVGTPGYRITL", "format": "biochemical"}, "X-box-binding protein 1": {"molecular_target": "T4, X-box-binding protein 1 (Homo sapiens, UniProt P17861)", "T4 sequence (P17861 whole entry)": "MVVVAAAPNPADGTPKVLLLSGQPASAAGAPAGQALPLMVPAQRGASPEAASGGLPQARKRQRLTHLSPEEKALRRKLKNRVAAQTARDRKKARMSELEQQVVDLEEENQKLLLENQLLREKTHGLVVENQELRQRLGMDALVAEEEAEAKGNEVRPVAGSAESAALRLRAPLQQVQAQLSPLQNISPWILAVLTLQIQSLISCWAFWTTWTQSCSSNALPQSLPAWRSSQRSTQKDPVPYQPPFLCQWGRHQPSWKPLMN", "format": "functional, Cricetulus griseus"}, "[7]": {"assay": "NIH-3T3 fibroblast cytotoxicity, dose response, cytotoxicity control, cell-based, fluorescence, Alamar Blue, secondary assay (AID 2327);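 note: NIH-3T3 mouse fibroblasts cultured with fluconazole at 8 µg/mL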", "format": "functional"}, "[8]": {"assay": "C. albicans growth with fluconazole, confirmation, fluorescence, retest (AID 2467)", "format": "functional, cell-based"}},
  "note": "The source made the active and inactive calls.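 Throughout, for Absolute IC50 (XBP1): confirmatory dose-response counter-screen serving a CHOP assay.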",
  "data": [
    {"compound": "COc1ccc(NC(=O)CCN2CCN(S(=O)(=O)c3cc(Cl)ccc3OC)CC2)cc1", "values": [
      {"measurement": "IC50", "setting": "[1]", "result": "> 100 µM (inactive)"}
    ]},
    {"compound": "Cc1ccc(C)c(-n2cc(CNCCc3cnccn3)c(-c3ccccc3)n2)c1", "values": [
      {"measurement": "EC50", "setting": "[2]", "result": "0.267 µM (active)"},
      {"measurement": "EC50", "setting": "[3]", "result": "> 92.5 µM (inactive)"},
      {"measurement": "EC50", "setting": "Mu-type opioid receptor", "result": "> 92.5 µM (inactive)"},
      {"measurement": "EC50", "setting": "[4]", "result": "> 92.5 µM (inactive)"}
    ]},
    {"compound": "Fc1ccc(NC(S)=NCCc2ccccn2)cc1", "values": [
      {"measurement": "EC50", "setting": "[2]", "result": "2.11 µM (active)"}
    ]},
    {"compound": "N#C/C(=C(\\O)c1ccco1)c1ccccn1", "values": [
      {"measurement": "IC50", "setting": "[5]", "result": "51.9 µM (not active)"},
      {"measurement": "IC50", "setting": "[1]", "result": "> 100 µM (inactive)"}
    ]},
    {"compound": "COc1ccc(-c2oc3ccc(N4CCOCC4)cc3c2C#Cc2ccc(N)cc2)cc1", "values": [
      {"measurement": "EC50", "setting": "[6]", "result": "5.72 µM (active)"},
      {"measurement": "AC50", "setting": "CAAX prenyl protease 2", "result": "5.02 µM (active)"}
    ]},
    {"compound": "CC(C)c1ccccc1NC(=O)Cn1c(/C=C/c2ccccc2)nc2ccccc21", "values": [
      {"measurement": "Absolute IC50 (XBP1)", "setting": "X-box-binding protein 1", "result": 10, "unit": "µM"}
    ]},
    {"compound": "C=CCSc1nc(-c2ccc(OCCCC)cc2)n[nH]1", "values": [
      {"measurement": "EC50", "setting": "[7]", "result": "> 150 µM (inactive)"},
      {"measurement": "EC50", "setting": "[8]", "result": "> 38 µM (not active)"},
      {"measurement": "Absolute IC50 (XBP1)", "setting": "X-box-binding protein 1", "result": "< 10", "unit": "µM"}
    ]}
  ]
}
